Test results: patent publication US8431169B2, “Nutraceutical composition and methods of use” (Dacy Tech Pty Ltd, priority 2007, dated 2013)

What was measured:
[1] = system: Normal Human Articular Chondrocytes (NHAC-knee); assay: BrdU cell proliferation assay; type: cell-based
Description: Clonetics® Normal Human Articular Chondrocytes (NHAC-knee) obtained from Lonza Australia Pty Ltd, were grown in chondrocyte growth medium (CGM) supplemented with growth factors. NHACs were used at passage #3-4 for all experiments.
The following assays were carried out using the protocols as per kit instructions:
Each of the above fractions was then individually assayed again for viability/cytotoxicity, cell growth and proliferation, apoptosis/necrosis using the tests as previously mentioned.

aggrecan = aggrecan RNA expression in cartilage explants (real time RT-PCR); type: cell-based, pig; details: indosim 0.02 mg/mL
Description: Front legs of market weight pigs (5-7 months old, 200-250 lbs) were obtained from a local abattoir. Legs were chilled on crushed ice until dissection. Using aseptic technique, the intercarpal joint was opened and the cartilage surfaces exposed. A 4 mm dermal biopsy punch was used to take explants (˜0.5 mm thickness; 11-15 mg/explant) of healthy cartilage from the weight-bearing region of both articulating surfaces of the intercarpal joint. Cartilage pieces were washed 3 times in Dubelco's Modified Eagle Medium (DMEM) supplemented with NaHCO3. Two cartilage discs were placed into each well of 24-well tissue culture plates containing DMEM supplemented with amino acids, sodium selenite, manganese sulfate, NaHCO3 and ascorbic acid (TCM—tissue culture medium). Plates were incubated at 37° C., 7% CO2 in a humidified atmosphere for up to 144 h. Every 24 h media was completely aspirated into 1 mL microcentrifuge tubes and immediately replaced with control, conditioned and/or stimulated media (described below) before being returned to the incubator. The collected media was stored at −80° C. until analysis. Cartilage was harvested at the end of each experiment with one explant per well stained for cytotoxicity and the remaining cartilage immediately frozen at −80° C. […]
SEQsim was prepared as explained above. […] Media was analyzed for [PGE2], [GAG], and [NO]. […]

iNOS = iNOS expression in IL-1-stimulated cartilage explants; type: cell-based, pig; details: IL-1-stimulated explants
Description: Simulated digests were prepared using SEQ (0.85 g), BO [2.5 mL (0.85 g)] and indomethacin (0.074 g—a positive anti-inflammatory control). […]

[2] = system: IL-1 stimulated and unstimulated cartilage explants; assay: GAG release into media by cartilage explants (1,9-DMB assay); type: cell-based, pig; details: indosim 0.02 mg/mL
Description: Front legs of market weight pigs (5-7 months old, 200-250 lbs) were obtained from a local abattoir. Legs were chilled on crushed ice until dissection. Using aseptic technique, the intercarpal joint was opened and the cartilage surfaces exposed. A 4 mm dermal biopsy punch was used to take explants ( 0.5 mm thickness; 11-15 mg/explant) of healthy cartilage from the weight-bearing region of both articulating surfaces of the intercarpal joint. Cartilage pieces were washed 3 times in Dubelco's Modified Eagle Medium (DMEM) supplemented with NaHCO3. Two cartilage discs were placed into each well of 24-well tissue culture plates containing DMEM supplemented with amino acids, sodium selenite, manganese sulfate, NaHCO3 and ascorbic acid (TCM-tissue culture medium). Plates were incubated at 37° C., 7% CO2 in a humidified atmosphere for up to 144 h. Every 24 h media was completely aspirated into 1 mL microcentrifuge tubes and immediately replaced with control, conditioned and/or stimulated media (described below) before being returned to the incubator. […] Media was analyzed for [PGE2], [GAG], and [NO]. […] Media GAG concentration was determined using a 1,9-DMB spectrophotometric assay (Chandrasekhar et al., 1987). […] Plates were incubated in the dark for 10 minutes, and absorbance was read on a Victor 3 microplate reader at 530 nm. Sample absorbance was compared to that of a chondroitin sulfate standard. […]

[3] = system: IL-1 stimulated and unstimulated cartilage explants; assay: nitric oxide (nitrite) in media from cartilage explants; type: cell-based, pig; details: IL-1-stimulated explants; indosim
Description: Simulated digests were prepared using SEQ (0.85 g), BO [2.5 mL (0.85 g)] and indomethacin (0.074 g—a positive anti-inflammatory control). Each test substance was individually suspended in 35 mL of simulated gastric fluid (37 mM NaCl, 0.03N HCl, 3.2 mg/mL pepsin), and shaken at 37° C. for 2 h (Rininger et al., 2000). After this, solution acidity was neutralized by adding an equinormal volume of 2.2 N NaOH (1.15 mL). To this was added 36.15 mL of simulated intestinal fluid (Rininger et al., 2000−30 mM K2HPO4, 160 mM NaH2PO4; 20 mg/mL pancreatin; pH adjusted to 7.4) and the resultant mixture shaken in a 37° C. incubator for a further 2 h. A “blank” was prepared using identical methodology but without including any test substance.
The supernatant was decanted and centrifuged a second time at 3,000×g for 15 min at 4° C. […]
Synovial fluid [NO]: Nitrite (NO2^−), a stable oxidation product of NO, was analyzed by the Griess reaction (Fenton et al., 2002). […] Sulfanilamide (0.01 g/mL) and N-(1)-Napthylethylene diamine hydrochloride (1 mg/mL) dissolved in phosphoric acid (0.085 g/L) was added to all wells, and absorbance was read within 5 minutes on a Victor 3 microplate reader at 530 nm. Sample absorbance was compared to a sodium nitrite standard.

[4] = system: IL-1-stimulated and unstimulated cartilage explants; assay: cell viability staining of cartilage explants (C-AM / EthD-1); type: cell-based, pig; details: indosim 0.02 mg/mL
Description: Front legs of market weight pigs (5-7 months old, 200-250 lbs) were obtained from a local abattoir. Legs were chilled on crushed ice until dissection. Using aseptic technique, the intercarpal joint was opened and the cartilage surfaces exposed. A 4 mm dermal biopsy punch was used to take explants ( 0.5 mm thickness; 11-15 mg/explant) of healthy cartilage from the weight-bearing region of both articulating surfaces of the intercarpal joint. Cartilage pieces were washed 3 times in Dubelco's Modified Eagle Medium (DMEM) supplemented with NaHCO3. Two cartilage discs were placed into each well of 24-well tissue culture plates containing DMEM supplemented with amino acids, sodium selenite, manganese sulfate, NaHCO3 and ascorbic acid (TCM-tissue culture medium). Plates were incubated at 37° C., 7% CO2 in a humidified atmosphere for up to 144 h. Every 24 h media was completely aspirated into 1 mL microcentrifuge tubes and immediately replaced with control, conditioned and/or stimulated media (described below) before being returned to the incubator. […] Media was analyzed for [PGE2], [GAG], and [NO]. […] Cell viability was determined using a commercially available viability staining kit (Invitrogen; Burlington ON) (Pearson et al., 2007). […] The plate was read from the bottom of each well using 10 horizontal steps, 3 vertical steps, and a 0.1 mm displacement.

Row | SMILES | NHAC proliferation (BrdU) [1] | aggrecan increase after IL-1 stimulation (aggrecan; IL-1-stimulated (10 ng/mL) explants) | increase in aggrecan expression (aggrecan; unstimulated explants) [fold] | IL-1-mediated iNOS expression (iNOS) | media [GAG] compared with stimulated controls ([2]; IL-1-stimulated explants, p=0.1) | media [GAG] compared with unstimulated controls ([2]; unstimulated explants) | IL-1-mediated NO production [3] | cell viability ([4]; IL-1-stimulated explants) | cell viability ([4]; unstimulated explants)
1 | CCCCCCCCC=CCCCCCCCC(=O)O [Fraction F1.4, 9-Octadecenoic acid] | most active | – | – | – | – | – | – | – | –
2 | COc1ccc2c(c1)c(CC(=O)O)c(C)n2C(=O)c1ccc(Cl)cc1 [indosim, indomethacin] | – | completely abolished | 58 | augmenting effect | elevated compared with stimulated controls over the duration of the experiment, but not significantly | significantly higher | increase | no significant effect | no significant effect
